Patent US20210000806A1, “COMPOSITIONS AND METHODS FOR TREATING INFLAMMATORY BOWEL DISEASE AND FUSOBACTERIA-CAUSED OR RELATED DISEASES AND CONDITIONS” (priority 2018, published 2021)

Columns and labels:
ulcerative colitis = experiment: Case report: patient with ulcerative colitis (pancolitis) treated with secnidazole, rifampicin and doxycycline; assay type: in vivo, human; settings: patient history before the antibiotic combination
Procedure: A patient with a 12 year history of ulcerative colitis presented with 4-15 diarrhoeal stools every day and 2-3 at night.
They were commenced on secnidazole (400 mg three times daily) combined with rifampicin (increasing from 150 mg twice daily to 300 mg twice daily after four weeks), together with doxycycline (50 mg twice daily).
They then continued on the same regimen a further six months when a colonoscopy was repeated.

[1] = system: inflammatory bowel disease (IBD); experiment: Inventor's clinical experience with higher-dose rifaximin in colitis / IBD; assay type: in vivo, human
Excerpt: Current doses are almost always an under-dosing with rifaximin; and there is no external dose reference or independent dose ranging study in colitis to be guided by.

SMILES | response to previous anti-inflammatory medications (ulcerative colitis) | inhibiting inflammation by inhibiting the infection(s) ([1]; higher dose spread over 3 doses/day (3.3 g per day) versus current recommended doses (550 mg twice daily)) | remission with rifaximin alone ([1]; only using the higher and more frequent dosing)
Cn1cnc([N+](=O)[O-])c1Sc1ncnc2nc[nH]c12 [azathioprine] | not achieving more than a transient response | – | –
CO[C@H]1/C=C/O[C@@]2(C)Oc3c(C)c(O)c4c(O)c(c5c(nc6cc(C)ccn65)c4c3C2=O)NC(=O)/C(C)=C\C=C\[C@H](C)[C@H](O)[C@@H](C)[C@@H](O)[C@@H](C)[C@H](OC(C)=O)[C@@H]1C [rifaximin] | – | works far better | can be used to achieve remission
C[C@]12C=CC(=O)C=C1CC[C@@H]1[C@@H]2C(=O)C[C@@]2(C)[C@H]1CC[C@]2(O)C(=O)CO [prednisone] | not achieving more than a transient response | – | –
Nc1ccc(O)c(C(=O)O)c1 [mesalazine] | not achieving more than a transient response | – | –
